For data set [1] the following is noted: salt form of U.S. Pat. No. 7,183,282, precipitated from diethyl ether; cited from earlier work.
Data set [2] relates to muscarinic. Particulars: cited from earlier work.
For data set [3] the following is noted: free base form; cited from earlier work.
Data set [4] can be described thus: solubility of free base in organic solvents. In kind it is physicochemical. Particulars: variety of organic solvents.
The target in data set [5] is H1 histaminergic (Homo sapiens, UniProt P35367). Particulars: cited from earlier work.
For data set [6], the target named is T1, 5-HT2C (Homo sapiens, UniProt P28335).
T1 sequence (P28335 33-458): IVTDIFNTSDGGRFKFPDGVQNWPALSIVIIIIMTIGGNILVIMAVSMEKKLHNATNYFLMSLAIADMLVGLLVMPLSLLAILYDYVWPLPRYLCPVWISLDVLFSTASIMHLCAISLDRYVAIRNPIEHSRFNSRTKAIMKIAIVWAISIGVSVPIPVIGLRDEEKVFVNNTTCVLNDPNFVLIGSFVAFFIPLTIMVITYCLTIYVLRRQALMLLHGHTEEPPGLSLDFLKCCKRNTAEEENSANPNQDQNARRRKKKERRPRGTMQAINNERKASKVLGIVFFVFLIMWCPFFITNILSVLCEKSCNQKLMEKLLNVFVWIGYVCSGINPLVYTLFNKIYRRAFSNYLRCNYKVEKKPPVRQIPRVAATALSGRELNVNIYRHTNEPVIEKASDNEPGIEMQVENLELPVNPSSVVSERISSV
Particulars: cited from earlier work.

Here are results for two compounds from US11440911B2, “Salts and crystals” (INTRA-CELLULAR THERAPIES, INC., priority 2017, dated 2022).

Chain of H1 histaminergic (P35367 whole entry): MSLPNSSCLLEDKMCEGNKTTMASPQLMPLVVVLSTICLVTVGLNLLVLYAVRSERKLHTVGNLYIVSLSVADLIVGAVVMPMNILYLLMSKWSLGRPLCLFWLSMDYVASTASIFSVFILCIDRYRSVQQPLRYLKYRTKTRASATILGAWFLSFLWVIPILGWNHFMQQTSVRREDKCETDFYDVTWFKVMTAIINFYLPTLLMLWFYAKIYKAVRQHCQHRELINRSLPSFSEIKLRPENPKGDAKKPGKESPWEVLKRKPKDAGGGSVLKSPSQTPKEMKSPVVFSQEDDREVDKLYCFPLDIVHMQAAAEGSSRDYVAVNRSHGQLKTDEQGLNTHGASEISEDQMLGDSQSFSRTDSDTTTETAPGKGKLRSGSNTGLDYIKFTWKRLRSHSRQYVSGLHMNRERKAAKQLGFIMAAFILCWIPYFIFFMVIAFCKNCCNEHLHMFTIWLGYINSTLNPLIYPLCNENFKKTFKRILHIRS

Consider `CN1CCN2c3c(cccc31)C1CN(CCCC(=O)c3ccc(F)cc3)CCC12.Cl` (stereo not shown) [hydrochloride salt form of ITI-007], for which, in data set [1], the hygroscopicity entry is reported as “hygroscopic” and the stability result is “poor stability”.
Turning to `CN1CCN2c3c(cccc31)[C@@H]1CN(CCCC(=O)c3ccc(F)cc3)CC[C@@H]12` [ITI-007, 1-(4-fluoro-phenyl)-4-((6bR,10aS)-3-methyl-2,3,6b,9,10,10a-hexahydro-1H,7H-pyrido[3′,4′:4,5]pyrrolo[1,2,3-de]quinoxalin-8-yl)-butan-1-one], the binding to receptor entry in data set [2], in data set [5] and in data set [6] was “negligible binding” throughout. Moreover, the aqueous solubility result in data set [3] is recorded as “poor aqueous solubility”. Further, in data set [4], the “solubility in organic solvents” value is given as “good solubility”.
